Measurements from US9290551B2, “Compounds for treating papilloma virus infection” (NanoVir, LLC, priority 2012, dated 2016).
pIC50: −log10 of the molar value.

Tests used:
Type in all cases: cell-based, Human papilloma virus
[1] = test system: HPV 16; experiment: HPV 16 episome DNA levels in W12E cells by Q-PCR (Taqman); settings: effective (pseudo) IC50; 50% reduction in HPV DNA relative to vehicle (0.1% DMSO); read-out: HPV-16 IC50
Experimental: Cells maintaining HPV 16 DNA were cultured for 72 hours in the presence of cidofovir, interferon γ or polyamide. Viral DNA was then quantified using real-time PCR and compared to vehicle (DMSO)-treated control cultures.
Compounds were initially tested for effects on HPV 16 episome DNA levels in W12E cells by Q-PCR (Taqman™) over 3 concentration ranges (0.1, 1 and 10 μM). W12E cells are a cervical keratinocyte cell line originally identified by M. Stanley (Cambridge University), and later optimized and provided by P. Lambert (U. of Wisconsin). […] In all cases (initial tests and follow-up IC50 tests), dose testing was performed in triplicate. […] Furthermore, all experiments were conducted in triplicate, multiple times. The data were then combined, pseudo or effective IC50 values calculated, and variance determined to reveal the fit of the data to the model and its reliability.
Keratinocytes that maintain HPV 16 episomes were treated with increasing concentrations of polyamides.

[2] = test system: HPV18; experiment: HPV18 DNA levels in keratinocytes by real-time PCR; settings: effective (pseudo) IC50
Experimental: (§1) Human keratinocytes, including those maintaining HPV episomes, are cultured on mitomycin C-treated J2 3T3 cells in media containing three parts Dulbecco's modified Eagle medium (DMEM) and one part F12 media, our modification of published methods (Rheinwald and Green, 1975). Media (E Media) is supplemented with 0.4 μg/mL hydrocortisone, 10 ng/mL cholera toxin, 5 μg/mL insulin, 24 μg/mL adenine, 5 μg/mL transferrin, […] (T3), 10 ng/mL epidermal growth factor (EGF), 1% penicillin-streptomycin, and 5% fetal bovine serum (FBS). All cells are passaged at 70% confluency at a split ratio of 1:5.
(§2) Polyamides for HPV 18 are dissolved at 10 mM in 100% DMSO and diluted with H2O to 1 mM. Polyamides are added to cells in E media at final concentrations of 0.1-10 μM, with final DMSO concentrations of 0.1%. As controls, cells are incubated with normal E media and E media containing the “vehicle” 0.1% DMSO. The HPV DNA levels are then quantified according to previously published procedures (Garner-Hamrick and Fisher, Virology, 301, 334-41, 2002). After incubation, cells are harvested from the plates by either trypsinization or direct lysis with proteinase K digestion buffer (PK buffer: 100 mM NaCl, 10 mM Tris pH 8, 25 mM EDTA, 0.5% SDS, 0.1 mg/mL proteinase K). Trypsinized cells are counted on a hemocytometer and pelleted by centrifugation. Episomal HPV is isolated by the Hirt method (Hirt, 1967) and cell pellets are lysed in 0.6% SDS with 10 mM EDTA. NaCl is next added to a final concentration of 1 M. Following an overnight incubation at 4° C., precipitates containing the chromosomal DNA are spun down and episomal DNA precipitated by the addition of isopropanol. Cells lysed directly in PK buffer are transferred to microfuge tubes and incubated at 50° C. for 2 h. Lysates are then extracted with phenol/chloroform/isoamyl alcohol and spun through a phase lock gel (Eppendorf, Hamburg, Germany). Total DNA is then precipitated with 0.3 M NaOAc and 2.5 vol. ethanol and resuspended in Tris-EDTA (TE) buffer.
Viral DNA levels are next quantified according to variations on our previously published methods (Garner-Hamrick and Fisher, Virology, 301, 334-41, 2002). Quantitative PCR is performed using Real-Time PCR technology on an ABI PRISM 7700 Sequence Detector. All primers and probes were designed using Primer Express 1.0 (ABI). For HPV 18, PCR primer-probe sets were designed within the L1 gene:
(§3) All primers and probes are synthesized and HPLC purified by Applied Biosystems (Foster City, Calif.). The HPV probes are labeled with the 5′ reporter dye FAM (6-carboxy-fluorescein) and the 3′ quencher dye TAMRA (6-carboxytetramethyl-rhodamine). A standard curve is generated using a range of 10^8 to 10 copies/reaction of cloned, genomic HPV31 or HPV18 DNA using the following formula: (1.82×10^15)(μg/μL stock DNA)/(length in base pairs)(2)=copies/μL stock DNA. PCR reactions contain final concentrations of 1× Universal Master Mix (PE Applied Biosystems), 200 nM of each primer, and 250 nM probe (PE Applied Biosystems) in a reaction volume of 25 μL. Each Hirt-isolated DNA sample is analyzed in triplicate reactions for episomal HPV. Copies/reaction are determined from the standard curve, and copies/cell determined according to the following formula: (copies/reaction)×(DNA dilution)/(total # cells)=copies/cell.

[3] = test system: HPV31; experiment: HPV31 DNA levels in keratinocytes by real-time PCR; settings: effective (pseudo) IC50
Experimental: as §1, §2
HPV31 primers-probe sets for PCR were also designed within the L1 gene:
as §3

Molecule | pIC50 [1] | pIC50 [2] | pIC50 [3]
CN(CCCN)CCCNC(=O)CCNC(=O)c1cc(NC(=O)c2cc(NC(=O)c3cc(NC(=O)CCNC(=O)c4cc(NC(=O)c5cc(NC(=O)c6cc(NC(=O)CCNC(=O)c7cc(NC(=O)c8cc(NC(=O)[C@H](N)CCNC(=O)c9cc(NC(=O)c%10cc(NC(=O)CCNC(=O)c%11nc(NC(=O)c%12cc(NC(=O)c%13cc(NC(=O)CCNC(=O)c%14cc(NC(=O)c%15cc(NC(=O)c%16nccn%16C)cn%15C)cn%14C)cn%13C)cn%12C)cn%11C)cn%10C)cn9C)cn8C)cn7C)cn6C)cn5C)cn4C)cn3C)cn2C)cn1C [Polyamide 1067, ImPPβPPIβPPγNH2PPβPPPβPPPβTa] | 6.00 to 7.00 | 6.00 to 7.00 | 6.00 to 7.00
CN(CCCN)CCCNC(=O)CCNC(=O)c1cc(NC(=O)c2cc(NC(=O)c3cc(NC(=O)CCNC(=O)c4cc(NC(=O)c5cc(NC(=O)c6cc(NC(=O)CCNC(=O)c7cc(NC(=O)c8cc(NC(=O)[C@@H](CCN)NC(=O)c9cc(NC(=O)c%10cc(NC(=O)CCNC(=O)c%11nc(NC(=O)c%12cc(NC(=O)c%13cc(NC(=O)CCNC(=O)c%14cc(NC(=O)c%15cc(NC(=O)c%16nccn%16C)cn%15C)cn%14C)cn%13C)cn%12C)cn%11C)cn%10C)cn9C)cn8C)cn7C)cn6C)cn5C)cn4C)cn3C)cn2C)cn1C [Polyamide 1049, ImPPβPPIβPPγNH2PPβPPPβPPPβTa] | 6.00 to 7.00 | 6.00 to 7.00 | ≤ 6.00
CN(C)CCCNC(=O)CCNC(=O)c1cc(NC(=O)CCNC(=O)c2cc(NC(=O)c3cc(NC(=O)c4cc(NC(=O)CCNC(=O)c5cc(NC(=O)c6cc(NC(=O)CCCNC(=O)CCNC(=O)c7cc(NC(=O)c8cc(NC(=O)CCNC(=O)c9cc(NC(=O)c%10cc(NC(=O)c%11cc(NC(=O)c%12nccn%12C)cn%11C)cn%10C)cn9C)cn8C)cn7C)cn6C)cn5C)cn4C)cn3C)cn2C)cn1C [Polyamide 1022, ImPPPβPPβγPPβPPPβPβDp] | < 6.00 | – | ≤ 6.00
ImPPPβPPPγNH2PPPβPPPββDp [Polyamide 1026] | 6.00 to 7.00 | – | 6.00 to 7.00
CN(C)CCCNC(=O)CCNC(=O)c1cc(NC(=O)c2cc(NC(=O)c3cc(NC(=O)c4cc(NC(=O)CCNC(=O)c5cc(NC(=O)c6cc(NC(=O)CCCNC(=O)c7cc(NC(=O)c8cc(NC(=O)c9cc(NC(=O)CCNC(=O)c%10cc(NC(=O)c%11cc(NC(=O)c%12nccn%12C)cn%11C)cn%10C)cn9C)cn8C)cn7C)cn6C)cn5C)cn4C)cn3C)cn2C)cn1C [Polyamide 1023, ImPPβPPPγPPβPPPPβDp] | < 6.00 | – | ≤ 6.00
CN(CCCN)CCCNC(=O)CCNC(=O)c1cc(NC(=O)c2cc(NC(=O)c3cc(NC(=O)CCNC(=O)c4cc(NC(=O)c5cc(NC(=O)c6cc(NC(=O)CCNC(=O)c7cc(NC(=O)c8cc(NC(=O)CCCNC(=O)c9cc(NC(=O)c%10cc(NC(=O)CCNC(=O)c%11nc(NC(=O)c%12cc(NC(=O)c%13cc(NC(=O)CCNC(=O)c%14cc(NC(=O)c%15cc(NC(=O)c%16nccn%16C)cn%15C)cn%14C)cn%13C)cn%12C)cn%11C)cn%10C)cn9C)cn8C)cn7C)cn6C)cn5C)cn4C)cn3C)cn2C)cn1C [Polyamide 1042, ImPPβPPIβPPγPPβPPPβPPPβTa] | – | – | ≥ 7.00
CN(CCCN)CCCNC(=O)CCNC(=O)c1cc(NC(=O)CCNC(=O)c2cc(NC(=O)c3cc(NC(=O)c4cc(NC(=O)CCNC(=O)c5cc(NC(=O)c6cc(NC(=O)[C@H](N)CCNC(=O)CCNC(=O)c7cc(NC(=O)c8cc(NC(=O)CCNC(=O)c9cc(NC(=O)c%10cc(NC(=O)c%11cc(NC(=O)c%12nccn%12C)cn%11C)cn%10C)cn9C)cn8C)cn7C)cn6C)cn5C)cn4C)cn3C)cn2C)cn1C [Polyamide 1032, ImPPPβPPβγNH2PPβPPPβPβTa] | 6.00 to 7.00 | – | 6.00 to 7.00
CN(CCCN)CCCNC(=O)CCNC(=O)CCNC(=O)c1cc(NC(=O)c2cc(NC(=O)c3cc(NC(=O)CCNC(=O)c4cc(NC(=O)c5cc(NC(=O)c6cc(NC(=O)C(N)CCNC(=O)c7cc(NC(=O)c8cc(NC(=O)c9cc(NC(=O)CCNC(=O)c%10cc(NC(=O)c%11cc(NC(=O)c%12cc(NC(=O)c%13nccn%13C)cn%12C)cn%11C)cn%10C)cn9C)cn8C)cn7C)cn6C)cn5C)cn4C)cn3C)cn2C)cn1C (centres unmarked) [Polyamide 1033, ImPPPβPPPγNH2PPPβPPPββTa] | < 6.00 | – | ≤ 6.00
